Entries after “also recorded” stand apart in the source; their conditions may differ.
Assays:
[1] = Examination of bioavailability in humans: absorption of 55Fe-labelled iron compound and 59Fe-labelled native iron from iron-fortified buns; type: in vivo; conditions: for Absorption, Fortification: fortification iron (55Fe)
Description: The examination was carried out by the technique described in the above-mentioned paper by Hallberg et al.
The iron compound to be tested is labelled with radioactive iron, ^55 Fe, in the synthesis of the compound used. This iron is used to fortify flour from which buns are made by standard procedures, for example as follows: ______________________________________ Ingredients Parts by weight ______________________________________ wheat-flour 100 sugar 3.5 salt 1.0 yeast 6.5 water 83 iron source 6.5 ^- 10^-3 ______________________________________
The iron occurring naturally (native iron) in wheat-flour is labelled by adding tracer amounts of ^59 Fe-labelled iron(III)chloride. The buns are thus made of flour which is labelled with two different radioactive isotopes.
The ingredients are mixed, and the dough is allowed to rise for 30 minutes. After the usual kneading, the dough is placed in small aluminium baking tins where the dough pieces are allowed to rise for another 30 minutes. The dough pieces in the baking tins are subsequently baked at a temperature of 250° C. for 10 minutes
These double-labelled buns are served a group of test subjects, for breakfast with coffee, margarine and marmalade two successive mornings after a night's fast. No food or beverage is allowed for three hours after breakfast. Two weeks after the last breakfast, blood tests are made to measure the occurrence of ^55 Fe and ^59 Fe in blood. Furthermore,the totally absorbed amount of ^59 Fe in the body is measured by a so-called total-body counter Via the ratio of ^59 Fe to ^55 Fe in blood samples, also the totally absorbed amount of ^55 Fe can be determined.
Subsequently, a reference solution is administered, consisting of ^59 Fe-labelled iron(II)sulphate and ascorbic acid at two successive breakfasts after a night's fast. No food or beverage is allowed for three hours thereafter. Another two weeks later, a new total-body measurement is made to measure the absorption of the reference dose. The reference solution is administered to make it possible to carry out corrections with regard to differences in the iron absorbing capability of the different test subjects.
The amount of ^59 Fe which is added as ^59 FeCl3 to the wheat-flour, isotope-labels by so-called isotopic exchange all biologically available nonheme iron (=non-blood iron) in the meals analysed, i.e. on the one hand the native iron and, on the other hand, the part of the fortification iron which is dissolved. However, that part of the fortification iron which is not dissolved in the gastrointestinal tract, is not labelled. […]

[2] = humans; literature or background statement; cited from earlier work
[3] = Solubility in artificial gastric environment (0.1M HCl, pH 1, 37° C.); type: physicochemical; conditions: for % Solubility 10 min / % Solubility 30 min / % Solubility 60 min: 0.1M HCl, pH=1, 37° C.; for solubility at pH 1 / in 0.1M HCl / gastric environment (in words): pH 1 (0.1M HCl)
Description: Here, solubility tests for some commercially used iron(III)phosphates have also been included.
The compound examined in Example 1 was also measured as a reference substance (compound A)

[4] = 40 g buns, 0.2 mg native iron, 2.2 mg fortification iron, ten persons

O=P([O-])([O-])[O-].[Fe+3] [Common iron(III)phosphate, iron(III)phosphate, reference compound]
Absorption, Fortification ([1]; 60 g buns, 0.5 mg native iron, 3 mg fortification iron, ten persons): 1.1%

O=S(=O)([O-])[O-].[Fe+2] [iron(II)sulphate]
absorbability / bioavailability [2]: highest absorbability; also recorded: high bioavailability in the human body

O=P([O-])([O-])[O-].[Fe+3] [iron(III)orthophosphate]
absorbability / bioavailability [2]: questionable in respect to the bioavailability of iron

O=P([O-])([O-])OP(=O)([O-])O.[Fe+2].[Na+] [sodium iron pyrophosphate]
absorbability / bioavailability [2]: questionable in respect to the bioavailability of iron

Fe3 H8 (NH4)(PO4)6 .multidot.6H2 O [Compound A]
Relative bioavailability 55Fe/59Fe [1, 4]: 0.63 ± 0.04 | Absorption, Fortification [1, 4]: 3.3% | bioavailability (in words) ([1]; humans): far better bioavailability than both the commercial fortifying agent which is to date most frequently used, i.e. iron powder, and the known commercial fortifying agent which, in structural respect, is its closest relation, i.e. common iron(III)phosphate | % Solubility 10 min [3]: 86% | % Solubility 30 min [3]: 100% | % Solubility 60 min [3]: 100%

Fe3 H8 K(PO4)6 .multidot.6H2 O [Compound E]
% Solubility 10 min [3]: 5% | % Solubility 30 min [3]: 39% | % Solubility 60 min [3]: 72% | solubility at pH 1 / in 0.1M HCl / gastric environment (in words) [3]: low initial solubility but reached, after some time, relatively good values

Fe5 H8 Na4 (PO4)9 .multidot.10H2 O [Compound C]
% Solubility 10 min [3]: 70% | % Solubility 30 min [3]: 93% | % Solubility 60 min [3]: 100% | solubility at pH 1 / in 0.1M HCl / gastric environment (in words) [3]: approximately the same good solubility properties as the ammonium-containing compound A

FeH2 Na(PO4)2 .multidot.0.5H2 O [Compound D]
% Solubility 10 min [3]: 61% | % Solubility 30 min [3]: 92% | % Solubility 60 min [3]: 100% | solubility at pH 1 / in 0.1M HCl / gastric environment (in words) [3]: approximately the same good solubility properties as the ammonium-containing compound A

FeH5 Na(PO4)3 .multidot.H2 O [Compound B]
% Solubility 10 min [3]: 82% | % Solubility 30 min [3]: 97% | % Solubility 60 min [3]: 100% | solubility at pH 1 / in 0.1M HCl / gastric environment (in words) [3]: approximately the same good solubility properties as the ammonium-containing compound A
